Measured values from patent publication US20050059646A1, “Use of 4-androstene-3,6,17-trione to elevate testosterone levels and the testosterone/estrogen ratio in males” (Proviant Technology Inc., priority 2003, published 2005).

Key:
aromatase enzyme = biological target: T1, aromatase enzyme (Homo sapiens, UniProt P11511); conditions: in-vitro; cited from earlier work
T1 sequence (P11511 1-503): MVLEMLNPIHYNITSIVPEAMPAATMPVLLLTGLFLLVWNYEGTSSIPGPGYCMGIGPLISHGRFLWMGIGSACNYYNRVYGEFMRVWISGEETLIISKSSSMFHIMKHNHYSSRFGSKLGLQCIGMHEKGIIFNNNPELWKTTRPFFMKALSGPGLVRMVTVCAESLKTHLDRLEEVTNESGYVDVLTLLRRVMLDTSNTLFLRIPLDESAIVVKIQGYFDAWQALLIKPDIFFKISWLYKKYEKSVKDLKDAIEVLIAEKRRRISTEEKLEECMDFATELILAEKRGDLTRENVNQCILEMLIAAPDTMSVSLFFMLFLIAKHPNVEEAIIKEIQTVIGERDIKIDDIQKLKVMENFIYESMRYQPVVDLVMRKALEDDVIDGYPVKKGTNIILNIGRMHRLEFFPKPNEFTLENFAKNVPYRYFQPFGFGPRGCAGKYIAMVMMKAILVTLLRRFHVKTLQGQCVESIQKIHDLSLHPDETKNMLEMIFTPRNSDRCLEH

male subjects = test: Open label study: 300 mg a-trione bid for three weeks, endocrine markers in resting AM blood draws; type: in vivo, human; set-up: Free Testosterone: unit not given here; conditions: for Total Testosterone: 300 mg bid oral, six male subjects, Week 0 baseline 443.67; for Estradiol / Sex Hormone Binding Globulin (SHBG) / Dihydrotestosterone / Free Testosterone / T/E Ratio: 300 mg bid; for Estradiol: Week 0 baseline 16.5; for Sex Hormone Binding Globulin (SHBG): Week 0 baseline 21.83; for Dihydrotestosterone: Week 0 baseline 33.33; for Free Testosterone: Week 0 baseline 126.67; for T/E Ratio: Week 0 baseline 269/1
Procedure: Six male subjects, aged 32-40 years of age, were prescreened via a medical doctor for endocrinological abnormalities. The subjects' physical characteristics were: height 177.38+/−[…] cm, weight 88.8+/−13.65 kg, body fat percentage 14.9+/−3.5%. Subjects ingested 300 mg a-trione bid for three weeks as part of an open label design. Resting AM blood draws were taken at 0, 1, 2, and 3 weeks of supplementation. Table 1 indicates the changes in endocrine markers over the time evaluated. Results were analyzed using a Repeated Measures-ANOVA design with paired samples t-tests as appropriate. […] Therefore, a-trione can raise the T/E ratio while leaving estradiol in the safe physiological range.

[1] = 300 mg bid for three weeks, change over the time evaluated

Compound: C[C@]12CCC(=O)C=C1C(=O)C[C@@H]1[C@@H]2CC[C@]2(C)C(=O)CC[C@@H]12 [a-trione, 4-androstene-3,6,17-trione]
- aromatase inhibiting activity (aromatase enzyme): has been shown to have aromatase inhibiting activity in-vitro
- change in estrogen (male subjects; [1]): −11%
- increase in testosterone levels (male subjects; [1]): +88%
- Total Testosterone (male subjects; Week 1): 701.17 ng/dL
- Estradiol (male subjects; Week 1): 16.5 pg/mL
- Sex Hormone Binding Globulin (SHBG) (male subjects; Week 1): 20.5 nmol/L
- Dihydrotestosterone (male subjects; Week 1): 39.83 ng/dL
- Free Testosterone (male subjects; Week 1): 216.67
- T/E Ratio (male subjects; Week 1): 425/1
- Total Testosterone (male subjects; Week 2): 752.17 ng/dL
- Estradiol (male subjects; Week 2): 14.8 pg/mL
- Sex Hormone Binding Globulin (SHBG) (male subjects; Week 2): 19.5 nmol/L
- Dihydrotestosterone (male subjects; Week 2): 45.83 ng/dL
- Free Testosterone (male subjects; Week 2): 252.33
- T/E Ratio (male subjects; Week 2): 508/1
- Total Testosterone (male subjects; Week 3): 835.33 ng/dL
- Estradiol (male subjects; Week 3): 14.67 pg/mL
- Sex Hormone Binding Globulin (SHBG) (male subjects; Week 3): 18.83 nmol/L
- Dihydrotestosterone (male subjects; Week 3): 47.5 ng/dL
- Free Testosterone (male subjects; Week 3): 285.67
- T/E Ratio (male subjects; Week 3): 569/1
- effect on estradiol (in words) (male subjects; male endocrinological profile): small, barely significant decrease in estradiol
- effect on testosterone (in words) (male subjects; male endocrinological profile): very marked increase of testosterone
